The source of these data is US20220090217A1, “BIOMARKERS AND USES THEREOF IN THE TREATMENT OF CHRONIC HBV INFECTION” (Janssen Sciences Ireland Unlimited Company, priority 2020, published 2022).

This assay relates to chronic hepatitis B (CHB) patients. Nature of the assay: Onset of clinical relapse after stop of NA treatment (Cox proportional hazard regression). The class given is in vivo, human. Conditions: entecavir compared to tenofovir; among the 110 clinical relapsers. The source says:
Patients and Study Design: In this multi-center prospective study in Taiwan, 242 CHB patients were enrolled while in their last half year of a minimum 3-year treatment regimen with direct antivirals. Of them, 47 were excluded due to protocol violation, screening failure, lost to follow-up, withdrawal by the subject, use of immune related therapy, or on-treatment clinical relapse. An additional 14 were excluded as the analysis required patients to be hepatitis B e-antigen (HBeAg) negative, hepatitis virus (HBV) DNA <60 IU/mL, and alanine transaminase (ALT) <80 U/L at the last on-treatment visit, leaving […] patients eligible for analysis. […] Cumulative incidence of virological and clinical relapse after stop of treatment was assessed by Kaplan-Meier curves (FIGS. 1A and 1B). […] Statistical Analysis of HLA Data: The association between the HLA alleles (at two and four digits resolution for each locus) and diversity (genetic homozygosity and HED score, independently) and onset of relapse was assessed using a Cox model (Harrell et al., JAMA: The Journal of the American Medical Association, 1982, 247: 2543) including HBsAg level at the last visit on treatment (high (≥100 IU/mL) vs. low (<100 IU/mL)) and the antiviral treatment at enrolment (tenofovir vs. entecavir) as main effects. […]

Regarding `C=C1[C@H](CO)[C@@H](O)C[C@@H]1n1cnc2c(=O)[nH]c(N)nc21` [entecavir], the “onset of clinical relapse later after stopping treatment, on average” value is listed as 100 days.
